Laboratory results: ChEMBL document CHEMBL3352755, “Synthesis and influenza virus inhibitory activities of carbosilane dendrimers peripherally functionalized with hemagglutinin-binding Peptide” (J Med Chem, 2014)

Experiments:
[1] = Hemolytic activity in chicken erythrocytes at 240 uM after 24 hrs by spectrophotometry; type: ADME, cell-based, Gallus gallus, Erythrocyte; settings: read-out: Activity
[2] = Critical micelle concentration of the compound in PBS using N-phenyl-1-naphthylamine by fluorescence assay; type: ADME; settings: buffer
[3] = tested on: Influenza A virus; assay: Antiviral activity against Influenza A virus (A/Puerto Rico/8/34(H1N1)) infected in MDCK cells after 2 days using crystal violet staining by plaque assay; type: functional, organism-based; settings: A/Puerto Rico/8/1934(H1N1), 48 h
[4] = Antiviral activity against Influenza A virus (A/Aichi/2/1968(H3N2)) infected in MDCK cells after 2 days using crystal violet staining by plaque assay; type: functional, cell-based; settings: 48 h
[5] = Hemolytic activity in chicken erythrocytes at 48 uM after 24 hrs by spectrophotometry; type: ADME, cell-based, Gallus gallus, Erythrocyte; settings: read-out: Activity
[6] = tested on: MDCK; assay: Cytotoxicity against MDCK cells at 10 times IC50 in antiviral assay after 2 days by WST-1 cell counting assay; type: cell-based, Canis lupus familiaris; settings: dog, 48 h
[7] = tested on: MDCK; assay: Cytotoxicity against MDCK cells at 200 uM after 2 days by WST-1 cell counting assay; type: cell-based, Canis lupus familiaris; settings: dog, 48 h
[8] = Hemolytic activity in chicken erythrocytes at 30 to 40 uM after 24 hrs by spectrophotometry; type: ADME, cell-based, Gallus gallus; settings: erythrocyte

Row | SMILES | hemolysis at 24 h, 240 µM [1] [%] | CMC [2] [µM] | IC50 [3] [µM] | IC50 [4] [µM] | hemolysis at 24 h, 48 µM [5] [%] | Activity [6] | Activity [7] | Activity [8]
1 | CC(C)C[C@H](NC(=O)[C@H](CCCNC(=N)N)NC(=O)[C@H](C)N)C(=O)N1CCC[C@H]1C(=O)N[C@@H](CCCNC(=N)N)C(=O)NCCC[Si](CCCNC(=O)[C@H](CCCNC(=N)N)NC(=O)[C@@H]1CCCN1C(=O)[C@H](CC(C)C)NC(=O)[C@H](CCCNC(=N)N)NC(=O)[C@H](C)N)(CCCNC(=O)[C@H](CCCNC(=N)N)NC(=O)[C@@H]1CCCN1C(=O)[C@H](CC(C)C)NC(=O)[C@H](CCCNC(=N)N)NC(=O)[C@H](C)N)CCC[Si](C)(C)CCC[Si](CCCNC(=O)[C@H](CCCNC(=N)N)NC(=O)[C@@H]1CCCN1C(=O)[C@H](CC(C)C)NC(=O)[C@H](CCCNC(=N)N)NC(=O)[C@H](C)N)(CCCNC(=O)[C@H](CCCNC(=N)N)NC(=O)[C@@H]1CCCN1C(=O)[C@H](CC(C)C)NC(=O)[C@H](CCCNC(=N)N)NC(=O)[C@H](C)N)CCCNC(=O)[C@H](CCCNC(=N)N)NC(=O)[C@@H]1CCCN1C(=O)[C@H](CC(C)C)NC(=O)[C@H](CCCNC(=N)N)NC(=O)[C@H](C)N | 85 | 4 | 0.72 | 0.6 | 46 | Non-toxic | – | –
2 | CC(C)C[C@H](NC(=O)[C@H](CCCNC(=N)N)NC(=O)[C@H](C)N)C(=O)N1CCC[C@H]1C(=O)N[C@@H](CCCNC(=N)N)C(=O)NCCC[Si](CCCNC(=O)[C@H](CCCNC(=N)N)NC(=O)[C@@H]1CCCN1C(=O)[C@H](CC(C)C)NC(=O)[C@H](CCCNC(=N)N)NC(=O)[C@H](C)N)(CCCNC(=O)[C@H](CCCNC(=N)N)NC(=O)[C@@H]1CCCN1C(=O)[C@H](CC(C)C)NC(=O)[C@H](CCCNC(=N)N)NC(=O)[C@H](C)N)CCCNC(=O)[C@H](CCCNC(=N)N)NC(=O)[C@@H]1CCCN1C(=O)[C@H](CC(C)C)NC(=O)[C@H](CCCNC(=N)N)NC(=O)[C@H](C)N | – | – | > 400 | > 400 | – | – | Non-toxic | Non-toxic
3 | CC(C)C[C@H](NC(=O)[C@H](CCCNC(=N)N)NC(=O)[C@H](C)N)C(=O)N1CCC[C@H]1C(=O)N[C@@H](CCCNC(=N)N)C(=O)NCCC[Si](CCCNC(=O)[C@H](CCCNC(=N)N)NC(=O)[C@@H]1CCCN1C(=O)[C@H](CC(C)C)NC(=O)[C@H](CCCNC(=N)N)NC(=O)[C@H](C)N)(CCCNC(=O)[C@H](CCCNC(=N)N)NC(=O)[C@@H]1CCCN1C(=O)[C@H](CC(C)C)NC(=O)[C@H](CCCNC(=N)N)NC(=O)[C@H](C)N)c1ccccc1 | – | 3.9 | 12.6 | 5.7 | – | Non-toxic | – | Non-toxic
